Consider twelve molecules from ChEMBL document CHEMBL1201862, “PubChem BioAssay data set” (2004).

For orientation: GI50 means the concentration giving 50% growth inhibition.

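Where inhibition never reached the appropriate level, the endpoint shown equals the highest concentration tested. Otherwise, values were interpolated linearly from a five-concentration, 48-hour dose response in 96-well plates. GI50 = concentration required for 50% inhibition of growth.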 The source made the active and inactive calls. Rule as the data show it: active = GI50 up to about 1.1 µM and inactive = higher.

Test systems include UACC-62; EKVX; SF-539; HL-60; SNB-19; A498; ACHN; OVCAR-8; SK-MEL-2; SK-MEL-28; OVCAR-5; NCI-H460; DU-145; SR; OVCAR-3; M14; TK-10; T47D; HCC 2998.
Holding throughout (test): DTP human tumour cell line panel, 48 h

`O=C(O)c1ccc2[nH]c(=O)oc2c1`: the GI50 in the experiment with UACC-62, in the experiment with EKVX, with SF-539, with HL-60, in the experiment on SNB-19 and in the experiment with A498 was > 100 µM (inactive) throughout. In addition, the GI50 in the experiment with ACHN, in the experiment on OVCAR-8, in the experiment on SK-MEL-2, with SK-MEL-28, with OVCAR-5 and in the experiment on NCI-H460 was > 100 µM (inactive) each time. Further, the GI50 in the experiment on DU-145, with SR, in the experiment with OVCAR-3, in the experiment with M14 and in the experiment with TK-10 was > 100 µM (inactive) each time.
`C/C=C/C1OC(O)(C(C)C(O)[C@H](C)C2OC(=O)/C(OC)=C/C(C)=C/[C@@H](C)[C@@H](O)[C@@H](C)C(O)C(C)C/C(C)=C/C=C/C2OC)C[C@@H](OC2CC(O)C(OC(N)=O)C(C)O2)C1C` (some centres undefined): the GI50 in the experiment with UACC-62 was < 0.01 µM (active); with EKVX, < 0.01 µM (active); with SF-539, < 0.01 µM (active); in the experiment with HL-60 it was < 0.01 µM (active); with SNB-19, < 0.01 µM (active); in the experiment on A498 it was 0.131 µM (active). The GI50 is < 0.01 µM (active) in the experiment on T47D; < 0.01 µM (active) with ACHN; < 0.01 µM (active) with OVCAR-8; < 0.01 µM (active) in the experiment on SK-MEL-2; 1.45 µM (inactive) in the experiment on SK-MEL-28; < 0.01 µM (active) in the experiment with HCC 2998. The GI50 was < 0.01 µM (active) in the experiment with NCI-H460; < 0.01 µM (active) in the experiment with DU-145; < 0.0182 µM (active) with OVCAR-3; < 0.01 µM (active) in the experiment with M14; < 0.01 µM (active) in the experiment with TK-10.
As for `Cc1cccc(C)c1NC(=O)C(=O)CC(=O)c1sc(Nc2c(C)cccc2C)nc1C`, the GI50 with UACC-62 was > 100 µM (inactive); in the experiment with EKVX, > 100 µM (inactive); in the experiment with SF-539 it was > 100 µM (inactive); with HL-60, 25.5 µM (inactive); with SNB-19, > 100 µM (inactive); in the experiment with A498, 86.7 µM (inactive). Besides, the GI50 with T47D, in the experiment on ACHN, in the experiment with OVCAR-8, in the experiment with SK-MEL-2, in the experiment with OVCAR-5 and in the experiment on HCC 2998 was > 100 µM (inactive) each time. The GI50 in the experiment on NCI-H460, in the experiment on DU-145, with OVCAR-3, in the experiment with M14 and with TK-10 was > 100 µM (inactive) in each case.
Consider `Cc1cc(=O)oc2cc(OCc3c(F)cccc3Cl)ccc12`, for which the GI50 in the experiment with UACC-62 was 1.12 µM (inactive); in the experiment with SF-539, 11.9 µM (inactive); in the experiment on HL-60, 3.76 µM (inactive); with SNB-19, 20.9 µM (inactive); in the experiment with A498 it was > 100 µM (inactive); in the experiment with T47D, 2.49 µM (inactive). Moreover, the GI50 in the experiment on ACHN was 79.8 µM (inactive); in the experiment on OVCAR-8 it was > 100 µM (inactive); in the experiment with SK-MEL-2 it was 4.55 µM (inactive); in the experiment on SK-MEL-28 it was > 100 µM (inactive); in the experiment on OVCAR-5 it was > 100 µM (inactive); with DU-145, > 100 µM (inactive). For the same molecule, the values for the GI50 in the experiment with OVCAR-3, in the experiment with M14 and with TK-10 were > 100 µM (inactive), 9.35 µM (inactive) and > 100 µM (inactive), respectively.
Consider `CN(C)C(=S)N/N=C\C(=N/NC(=S)N(C)C)c1ccccc1`, for which the GI50 is 8.41 µM (inactive) in the experiment with UACC-62; 7.36 µM (inactive) with EKVX; 10.1 µM (inactive) in the experiment on SF-539; 17 µM (inactive) with SNB-19; 7.21 µM (inactive) with A498; 1.28 µM (inactive) in the experiment on T47D. The GI50 was 3.72 µM (inactive) in the experiment with ACHN; 4.82 µM (inactive) in the experiment on OVCAR-8; 3.96 µM (inactive) in the experiment with SK-MEL-2; 7.16 µM (inactive) in the experiment with SK-MEL-28; > 30.9 µM (inactive) with OVCAR-5; 7.53 µM (inactive) with HCC 2998. The GI50 with NCI-H460 was 1.36 µM (inactive); in the experiment on DU-145, 4.23 µM (inactive); in the experiment on OVCAR-3 it was 2.7 µM (inactive); in the experiment on M14 it was 5.51 µM (inactive); in the experiment with TK-10, 6.87 µM (inactive).
With `Nc1nc(Cl)cc(Nc2cc(Cl)cc(Cl)c2)n1`, the GI50 is 18.4 µM (inactive) in the experiment on UACC-62; 21.3 µM (inactive) with EKVX; 17 µM (inactive) with SF-539; 23.4 µM (inactive) in the experiment on SNB-19; 25.9 µM (inactive) in the experiment on A498; 37 µM (inactive) in the experiment on T47D. The GI50 with ACHN was 24.9 µM (inactive); with OVCAR-8, 14.2 µM (inactive); in the experiment with SK-MEL-2 it was 18.7 µM (inactive); in the experiment on OVCAR-5, 31.9 µM (inactive); with HCC 2998, 18.7 µM (inactive); in the experiment with NCI-H460, 18.2 µM (inactive). Moreover, the GI50 in the experiment with DU-145 was 26.1 µM (inactive); in the experiment on OVCAR-3, 22.8 µM (inactive); in the experiment with M14, 19.3 µM (inactive); in the experiment on TK-10, 20.4 µM (inactive).
For the molecule `CCCCNC(=S)N/C=C1\C(=O)Oc2ccccc2C1=O`, the GI50 in the experiment with EKVX was > 100 µM (inactive); with SF-539, 98.4 µM (inactive); in the experiment on HL-60, 10 µM (inactive); in the experiment on SNB-19 it was 49.4 µM (inactive); in the experiment on T47D, 81.5 µM (inactive); with ACHN, 31.4 µM (inactive). The GI50 in the experiment with OVCAR-8 was 42.4 µM (inactive); in the experiment with SK-MEL-2, 38.5 µM (inactive); with SK-MEL-28, 77.8 µM (inactive); in the experiment with OVCAR-5, > 100 µM (inactive); in the experiment on HCC 2998 it was 68.7 µM (inactive); in the experiment on NCI-H460, 64.1 µM (inactive). In addition, the GI50 with DU-145 was 99.3 µM (inactive); in the experiment on OVCAR-3, > 100 µM (inactive); in the experiment with M14, 76.6 µM (inactive); in the experiment with TK-10 it was > 100 µM (inactive).
As for `O=C(c1ccccc1)c1ccc2c(c1)NC(=O)c1ccccc1SSc1ccccc1C(=O)N2`, the GI50 with UACC-62, in the experiment with EKVX, in the experiment with SF-539, in the experiment with HL-60, in the experiment on SNB-19 and with A498 was > 100 µM (inactive) in each case. Besides, the GI50 in the experiment with T47D, in the experiment on ACHN, in the experiment on OVCAR-8, in the experiment on SK-MEL-2, in the experiment on SK-MEL-28 and in the experiment on OVCAR-5 was > 100 µM (inactive) each time. Also, the GI50 with NCI-H460 was > 100 µM (inactive); with DU-145, > 100 µM (inactive); in the experiment with SR, 85.5 µM (inactive); in the experiment with OVCAR-3, > 100 µM (inactive); with M14, > 100 µM (inactive); with TK-10 it was > 100 µM (inactive).
Regarding `Cc1cc(OCc2nc(N)nc(N)c2-c2ccc(Cl)c(Cl)c2)ccc1[N+](=O)[O-]`, the GI50 in the experiment on UACC-62 is 0.0585 µM (active); in the experiment on EKVX, 0.953 µM (active); in the experiment on SF-539, 0.451 µM (active); in the experiment with HL-60 it was 0.356 µM (active); in the experiment with SNB-19 it was 0.743 µM (active); in the experiment on A498, 0.103 µM (active). In addition, the GI50 is 2.44 µM (inactive) with T47D; 0.0746 µM (active) with ACHN; 0.556 µM (active) in the experiment with OVCAR-8; 1.41 µM (inactive) in the experiment on SK-MEL-2; 0.531 µM (active) with SK-MEL-28; 0.45 µM (active) in the experiment on OVCAR-5. The GI50 in the experiment on NCI-H460 is 0.0462 µM (active); with DU-145, 0.582 µM (active); in the experiment with SR it was 0.0237 µM (active); in the experiment with OVCAR-3 it was 0.282 µM (active); in the experiment on M14, 0.104 µM (active); with TK-10, 0.401 µM (active).
For `c1ccc(C(C2=Nc3cccc4cccc(c34)N2)c2ccccc2)cc1`, the GI50 is 17.5 µM (inactive) in the experiment with UACC-62; 30.3 µM (inactive) with EKVX; 17.2 µM (inactive) in the experiment on SF-539; 31.7 µM (inactive) with HL-60; 37.8 µM (inactive) with SNB-19; 13.3 µM (inactive) in the experiment on T47D. In addition, the GI50 in the experiment on ACHN is 19.3 µM (inactive); with OVCAR-8, 30.7 µM (inactive); in the experiment on SK-MEL-2, 20.9 µM (inactive); in the experiment on SK-MEL-28, 23.6 µM (inactive); in the experiment on HCC 2998, 20.6 µM (inactive); in the experiment with NCI-H460, 24.7 µM (inactive). The GI50 with DU-145 is 32.2 µM (inactive); in the experiment on OVCAR-3 it was 20.3 µM (inactive); in the experiment on M14, 18.1 µM (inactive); in the experiment on TK-10, 47.9 µM (inactive).
Turning to `COC1=CC(=O)C(O)=C(C[C@@]2(C)[C@@H]3CCC[C@H](COC(=O)CCCCCNC(=O)OC(C)(C)C)[C@@]3(C)CC[C@@H]2C)C1=O`, the GI50 was 8.28 µM (inactive) in the experiment with EKVX; 3.04 µM (inactive) in the experiment on HL-60; 3.77 µM (inactive) in the experiment with SNB-19; > 10 µM (inactive) with A498; 4.45 µM (inactive) in the experiment with T47D; 3.32 µM (inactive) with ACHN. Moreover, the GI50 with OVCAR-8 is 6.73 µM (inactive); in the experiment on SK-MEL-2 it was > 10 µM (inactive); in the experiment with SK-MEL-28 it was 8.63 µM (inactive); in the experiment on OVCAR-5, > 10 µM (inactive); in the experiment with DU-145, > 10 µM (inactive); with SR, 5.22 µM (inactive). Further, the GI50 with OVCAR-3 is 5.92 µM (inactive); in the experiment on M14 it was 6.56 µM (inactive); in the experiment with TK-10 it was > 10 µM (inactive).
As to `COc1ccccc1-c1nc[nH]c1-c1ccccc1OC`, the GI50 was 25.6 µM (inactive) with EKVX; 35.2 µM (inactive) in the experiment on SNB-19; 27.7 µM (inactive) in the experiment on A498; 37.6 µM (inactive) with T47D; 35.9 µM (inactive) in the experiment on ACHN; 28.5 µM (inactive) with SK-MEL-2. In addition, the GI50 in the experiment on SK-MEL-28 is 33.7 µM (inactive); in the experiment on OVCAR-5, 37.9 µM (inactive); in the experiment on NCI-H460 it was 24.3 µM (inactive); in the experiment on OVCAR-3, 24.2 µM (inactive); in the experiment on M14 it was 19.7 µM (inactive); in the experiment with TK-10 it was 22.5 µM (inactive).
